“Also recorded” adds a separate entry of the source.
What was measured:
[1] = target: T1, IDO1 (Mus musculus, UniProt P28776); experiment: In-vivo PET imaging in M109 xenograft mice after treatment with the unlabeled IDO1 inhibitor (Example 6); details: 6, 60, 150 mg/kg PO once daily for 4 or 5 days
T1 construct: The M109 tumor model is generated from a murine lung carcinoma cell line and expresses high levels of IDO1; from tissue; host or cells: subcutaneous M109 (murine lung carcinoma) tumours in BALB/c mice, imaged in vivo
Experimental: Dosing and treatment was established based on known pharmacological effect and treatment was administered PO, once daily, for 4 or 5 days. All animals were received a PET scan post-treatment with the last dose of (R)—N-(4-chlorophenyl)-2-((1S,4)-4-(6-fluoroquinolin-4-yl)cyclohexyl)propanamide or vehicle administered 2 hours before PET imaging. […] The exact injected dose was calculated by subtracting the decay corrected activity of the residual in the syringe after injection from the total measured dose in the syringe prior to injection. For PET imaging, the mice were anesthetized with isoflurane and placed into a custom animal holder with capacity for 4 animals. Body temperature was maintained with a heating pad and anesthesia was maintained with 1.5% isoflurane for the duration of the imaging PET imaging was performed on a dedicated microPET® F120™ scanner and a F220™ scanner (Siemens Preclinical Solutions, Knoxville, Tenn.). A 10 minute transmission scan was performed using a ^57Co source for attenuation correction of the final PET images and followed by a 10 min static emission scan. Either before or after PET imaging a CT scan (X-SPECT, Gamma Medica) or MRI scan (Bruker) was performed for anatomical orientation during image analysis. PET images were reconstructed using a maximum a posteriori (MAP) algorithm with attenuation correction using the collected transmission images. Image analysis was performed using the image analysis software AMIDE PET images were co-registered with their corresponding CT or MRI images and regions of interest (ROIs) were manually drawn around tumor boundaries and muscle using the CT or MRI images as the anatomical guidelines. The outcome measure percentage injected dose/g tissue (% ID/g) was obtained from the ROIs volume and the calculated injected activity decay corrected to the beginning of the emission scan.

[2] = target: T1, IDO1; experiment: In-vivo PET imaging in M109 xenograft mice at baseline and after treatment with an IDO1 inhibitor (Example 7); details: 6, 60, 150 mg/kg PO once daily for 5 days
Experimental: All mice underwent 2 separate PET scans. The first was a baseline PET scan before treatment began and the second was a post treatment scan with either the IDO1 inhibitor or vehicle. Treatment was administered PO once daily for 5 days with the last dose administered 2 hours prior to the post-treatment PET scan. […] There were no difference in tracer uptake at baseline in the M109 tumors between any of the groups.

[3] = target: T1, IDO1; experiment: Comparison of tracer uptake in high (M109) and low (CT26) IDO1 expressing tumor models (Example 8); type: in vivo; details: BALB/c mice given vehicle for 5 days, tracer i.v. 1 hour before PET, CT26 low IDO1 expression
Source text: In order to compare the ability to differentiate between differences in expression levels of IDO1 we imaged an additional mouse model carrying CT26 tumors. The CT26 tumor model is generated from a murine colorectal carcinoma cell line and expresses lower levels of IDO1 than the M109 model.

[4] = PET biodistribution in non-human primate (Example 9); type: in vivo; details: male cynomolgus monkey, 1.2 mCi i.v., 5 full body PET scans
Experimental: A male cynomolgus monkey (3.5 kg) was anesthetized via a cocktail of 0.02 mg/kg Atropine, and 5 mg/kg Telazol, 0.01 mg/kg Buprenorphine and maintained with 1-2% isoflurane for the duration of the study. Body temperature was maintained at ˜37° C. using an external circulating water bed to prevent hypothermia during imaging. The monkey was intubated and a saphenous vein catheter was inserted to allow for radiotracer injection. […] The axial field of view in the PET system is 7.6 cm. With this limitation, images were acquired over 7 distinct bed positions to cover the full body with an overlap of 1.5 cm between beds. Prior to emission imaging a 10 minute transmission image was acquired for each bed position for attenuation correction of the final PET images, immediately following collection of the final transmission image, the bed was returned to position 1 and the radiotracer was injected via the saphenous vein catheter concurrently with the start of the first emission scan. For emission, a total of 5 full body scans were acquired, using 5 min emission acquisitions for each bed position. Images were reconstructed using a MAP algorithm with attenuation correction. Bed positions were stitched together for a full body image using a stitching software tool developed in house and PET and MRI images were co-registered using AMIDE software. The final images were visually inspected to note areas of high tracer accumulation and evaluate biodistribution and background signal.

[5] = listed as 18F—(R)—N-(4-chlorophenyl)-2-((1S,4S)-4-(6-fluoroquinolin-4-yl)cyclohexyl)propan
[6] = listed as [^18F](R)—N-(4-chlorophenyl)-2-((1S,4S)-4-(6-fluoroquinolin-4-yl)cyclohexyl)prop

T1 sequence (P28776 whole entry): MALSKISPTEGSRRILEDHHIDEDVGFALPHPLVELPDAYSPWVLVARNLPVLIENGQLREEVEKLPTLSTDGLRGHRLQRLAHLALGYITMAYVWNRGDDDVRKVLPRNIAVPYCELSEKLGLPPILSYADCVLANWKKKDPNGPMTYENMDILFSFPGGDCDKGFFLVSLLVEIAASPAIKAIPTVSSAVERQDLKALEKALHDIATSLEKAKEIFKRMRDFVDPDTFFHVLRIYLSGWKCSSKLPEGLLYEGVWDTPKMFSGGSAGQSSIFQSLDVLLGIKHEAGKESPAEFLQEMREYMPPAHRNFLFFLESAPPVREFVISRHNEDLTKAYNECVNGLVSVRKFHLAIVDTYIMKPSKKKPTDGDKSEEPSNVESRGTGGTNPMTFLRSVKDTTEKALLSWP

SMILES	Tracer uptake (% ID/g) in M109 tumors compared to vehicle ([1]; last dose 2 hours before PET, [18F] tracer i.v. 1 hour before imaging)	Tracer uptake in muscle reference tissue ([1]; muscle used as reference region for non-specific binding)	Tracer uptake in muscle reference tissue, baseline vs post-treatment [2]	Tracer uptake in M109 tumors after treatment, compared to vehicle group and baseline ([2]; last dose 2 hours before post-treatment PET scan)	Tracer uptake (% ID/g) in M109 tumors compared to CT26 tumors [3]	Areas of tracer accumulation (biodistribution) [4, 5]	Background signal in the rest of the body [4, 5]	Areas of tracer accumulation (biodistribution) [4, 6]	Background signal in the rest of the body [4, 6]
C[C@@H](C(=O)Nc1ccc(Cl)cc1)C1CCC(c2ccnc3ccc(F)cc23)CC1 (stereo partly drawn) [(R)—N-(4-chlorophenyl)-2-((1S,4S)-4-(6-fluoroquinolin-4-yl)cyclohexyl)propanamide]	dose-dependent decrease in tracer uptake; also recorded: dose-dependent displacement of the tracer	no effect on the tracer; also recorded: no effect on the uptake in muscle tissue	unaffected by treatment	dose-dependent decrease in tracer uptake; also recorded: dose-dependent displacement of the tracer					
C[C@@H](C(=O)Nc1ccc(Cl)cc1)[C@H]1CC[C@@H](c2ccnc3ccc([18F])cc32)CC1 [Example 5, [^18F](R)—N-(4-chlorophenyl)-2-((1S, 4S)-4-(6-fluoroquinolin-4-yl)cyclohexyl)propanamide]					higher % ID/g was observed in M109 mouse xenograft tumors compared to % ID/g in CT26 mouse xenograft tumors; also recorded: increased in M109 tumors	accumulated in expected clearance organs such as liver and gallbladder	little to no background	accumulated in the liver and gallbladder	minimal
